# How the values were obtained:
# [1] = target: T1, Human glucocorticoid receptors (Homo sapiens, UniProt P04150); test: Radioligand filter binding assay, displacement of 3(H)-dexamethasone from human glucocorticoid receptor cytosol; details: 1.7 μM test compound, inhibition of 3(H)-dex binding to hGR; for inhibition at 1.7 µM: read-out: GR BINDING (% Inhibition @ 1.7 μM)
# T1 construct: made in house; host or cells: Sf9 insect cells, recombinant baculovirus (BAC-TO-BAC)
# T1 sequence (P04150 1-777): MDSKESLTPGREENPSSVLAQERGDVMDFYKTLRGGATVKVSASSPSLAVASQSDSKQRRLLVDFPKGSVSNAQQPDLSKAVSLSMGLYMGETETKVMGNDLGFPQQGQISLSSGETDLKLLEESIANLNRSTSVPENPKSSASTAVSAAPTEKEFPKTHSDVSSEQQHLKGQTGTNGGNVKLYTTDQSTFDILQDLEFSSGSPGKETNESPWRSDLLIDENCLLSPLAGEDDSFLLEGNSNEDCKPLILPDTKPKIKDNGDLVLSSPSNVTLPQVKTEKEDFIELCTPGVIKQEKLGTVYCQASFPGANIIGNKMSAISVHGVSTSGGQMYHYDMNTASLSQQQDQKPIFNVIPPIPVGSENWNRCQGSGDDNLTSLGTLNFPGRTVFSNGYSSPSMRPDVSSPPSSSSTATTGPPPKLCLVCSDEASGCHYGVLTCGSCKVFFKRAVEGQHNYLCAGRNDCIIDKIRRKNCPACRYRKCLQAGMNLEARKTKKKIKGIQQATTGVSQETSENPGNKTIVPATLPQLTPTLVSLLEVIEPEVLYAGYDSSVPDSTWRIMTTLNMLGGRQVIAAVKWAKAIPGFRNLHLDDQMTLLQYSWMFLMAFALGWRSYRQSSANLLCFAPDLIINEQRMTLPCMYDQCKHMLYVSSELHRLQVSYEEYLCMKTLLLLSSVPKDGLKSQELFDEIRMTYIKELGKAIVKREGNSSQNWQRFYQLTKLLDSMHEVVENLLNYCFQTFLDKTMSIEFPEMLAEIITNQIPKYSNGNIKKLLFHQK
# [2] = target: T2, progesterone receptor (PR) (Homo sapiens, UniProt P06401); test: Radioligand binding assay with progesterone receptor cytosol (similar protocol)
# T2 sequence (P06401 1-933): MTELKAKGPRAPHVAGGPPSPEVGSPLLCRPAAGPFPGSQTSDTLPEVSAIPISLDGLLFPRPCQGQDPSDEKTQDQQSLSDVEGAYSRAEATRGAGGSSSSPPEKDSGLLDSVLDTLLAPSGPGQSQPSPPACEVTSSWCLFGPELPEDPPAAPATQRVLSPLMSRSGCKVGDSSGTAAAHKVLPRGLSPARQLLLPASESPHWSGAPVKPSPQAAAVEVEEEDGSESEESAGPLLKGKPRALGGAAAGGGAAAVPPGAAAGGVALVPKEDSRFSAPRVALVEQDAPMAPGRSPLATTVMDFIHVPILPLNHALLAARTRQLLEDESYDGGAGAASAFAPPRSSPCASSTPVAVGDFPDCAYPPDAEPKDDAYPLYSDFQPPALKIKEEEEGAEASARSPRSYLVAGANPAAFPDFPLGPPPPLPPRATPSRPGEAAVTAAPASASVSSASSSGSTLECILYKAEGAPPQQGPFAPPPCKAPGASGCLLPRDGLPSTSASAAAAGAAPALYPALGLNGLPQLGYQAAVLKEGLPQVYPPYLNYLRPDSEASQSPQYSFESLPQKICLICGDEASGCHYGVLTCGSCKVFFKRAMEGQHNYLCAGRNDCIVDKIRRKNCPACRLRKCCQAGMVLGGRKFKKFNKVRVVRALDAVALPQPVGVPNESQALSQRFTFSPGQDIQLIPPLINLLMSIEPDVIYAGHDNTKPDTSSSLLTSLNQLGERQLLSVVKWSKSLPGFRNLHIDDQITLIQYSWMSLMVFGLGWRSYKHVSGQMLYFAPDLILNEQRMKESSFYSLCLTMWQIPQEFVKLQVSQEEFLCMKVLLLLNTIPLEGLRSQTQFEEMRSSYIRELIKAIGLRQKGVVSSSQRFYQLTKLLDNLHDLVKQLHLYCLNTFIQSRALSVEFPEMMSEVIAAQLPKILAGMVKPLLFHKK
# Description: Methods for Radioligand Binding Studies with Human Glucocorticoid and Progesterone Receptor Cytosol
# A similar protocol was employed to measure affinity of the compounds of the present invention for progesterone receptor (PR).
IC50 [2],Compound,other results
–,CCCC1Oc2cccc(OC(F)F)c2-c2ccc(NS(C)(=O)=O)cc21 (racemic) [Example 27],inhibition at 1.7 µM [1]: 86.8%
–,C=Cc1cccc2c1-c1ccc(NS(C)(=O)=O)cc1C(c1ccccc1)O2 (racemic) [Example 37],inhibition at 1.7 µM [1]: 94.8%
–,CC#Cc1cccc2c1-c1ccc(NS(C)(=O)=O)cc1C(c1ccccc1)O2 (racemic) [Example 39],inhibition at 1.7 µM [1]: 90.6%
–,CS(=O)(=O)Nc1ccc2c(c1)C(c1ccccc1)Oc1cccc(-c3ccco3)c1-2 (racemic) [Example 40],inhibition at 1.7 µM [1]: 69.3%
–,C=CCc1cccc2c1-c1ccc(NS(C)(=O)=O)cc1C(c1ccccc1)O2 (racemic) [Example 41],inhibition at 1.7 µM [1]: 88.7%
–,"CCS(=O)(=O)Nc1ccc2c(c1)C(c1ccccc1)Oc1cccc(OC)c1-2 (stereo not drawn) [Example 7, (1-methoxy-6-phenyl-6H-dibenzo(b,d)pyran-8-yl)ethanesulfonamide]",GR BINDING (% Inhibition @ 1.7 μM) [1]: 90.6%
–,"COc1cccc2c1-c1ccc(NS(=O)(=O)C(C)C)cc1C(c1ccccc1)O2 (stereo not drawn) [Example 8, (1-methoxy-6-phenyl-6H-dibenzo(b,d)pyran-8-yl)isopropanesulfonamide]",GR BINDING (% Inhibition @ 1.7 μM) [1]: 87.9%
–,"COc1cccc2c1-c1ccc(NS(=O)(=O)/C=C/c3ccccc3)cc1C(c1ccccc1)O2 (stereo not drawn) [Example 11, (1-methoxy-6-phenyl-6H-dibenzo(b,d)pyran-8-yl)-(2-phenyl-E-ethenyl) sulfonamide]",inhibition at 1.7 µM [1]: 57.8%
–,"COc1cccc2c1-c1ccc(CC(N)=O)cc1C(c1ccccc1)O2 (stereo not drawn) [Example 12, (1-methoxy-6-phenyl-6H-dibenzo(b,d)pyran-8-yl)acetamide]",inhibition at 1.7 µM [1]: 86.1%
–,"CCC(=O)Nc1ccc2c(c1)C(c1ccccc1)Oc1cccc(OC)c1-2 (stereo not drawn) [Example 13, (1-methoxy-6-phenyl-6H-dibenzo(b,d)pyran-8-yl)propionamide]",GR BINDING (% Inhibition @ 1.7 μM) [1]: 85.4%
–,COc1cccc2c1-c1ccc(NC(=O)C(C)C)cc1C(c1ccccc1)O2 (stereo not drawn) [Example 14],GR BINDING (% Inhibition @ 1.7 μM) [1]: 85.1%
–,"COc1cccc2c1-c1ccc(NC(=O)C3CC3)cc1C(c1ccccc1)O2 (stereo not drawn) [Example 16, (1-methoxy-6-phenyl-6H-dibenzo(b,d)pyran-8-yl)cyclopropanecarboxamide]",GR BINDING (% Inhibition @ 1.7 μM) [1]: 74.3%
> 10000 nM,"COc1cccc2c1-c1ccc(NS(C)(=O)=O)cc1C(c1cccc(-c3ccc(Cl)cc3)c1)O2 (stereo not drawn) [Example 126, N-[6-(4′-chloro[1,1′-biphenyl]-3-yl)-1-methoxy-6H-benzo[c]chromen-8-yl]methanesulfonamide]",–
> 10000 nM,"COc1cccc2c1-c1ccc(NS(C)(=O)=O)cc1C(c1cccc(-c3ccc(Cl)c(Cl)c3)c1)O2 (stereo not drawn) [Example 127, N-[6-(3′,4′-dichloro[1,1′-biphenyl]-3-yl)-1-methoxy-6H-benzo[c]chromen-8-yl]methanesulfonamide]",–
880 nM,"COc1cccc2c1-c1ccc(NS(C)(=O)=O)cc1C(c1cccc(-c3ccc(O)cc3)c1)O2 (stereo not drawn) [Example 128, N-[6-(4′-hydroxy[1,1′-biphenyl]-3-yl)-1-methoxy-6H-benzo[c]chromen-8-yl]methanesulfonamide]",–
> 10000 nM,"COc1cccc2c1-c1ccc(NS(C)(=O)=O)cc1C(c1cccc(N(C)S(=O)(=O)c3ccccc3)c1)O2 (stereo not drawn) [Example 129, N(3-{1-methoxy-8-[(methylsulfonyl)amino]-6H-benzo[c]chromen-6-yl}phenyl)-N-methylbenzenesulfonamide]",–
> 10000 nM,"COc1cccc2c1-c1ccc(NS(C)(=O)=O)cc1C(c1cccc(N(C)S(=O)(=O)CCCCl)c1)O2 (stereo not drawn) [Example 130, 3-chloro-N-(3-{1-methoxy-8-[(methylsulfonyl)amino]-6H-benzo[c]chromen-6-yl}phenyl)-N-methyl-1-propanesulfonamide]",–
> 10000 nM,"CCS(=O)(=O)N(C)c1cccc(C2Oc3cccc(OC)c3-c3ccc(NS(C)(=O)=O)cc32)c1 (stereo not drawn) [Example 131, N-(3-{1-methoxy-8-[(methylsulfonyl)amino]-6H-benzo[c]chromen-6-yl}phenyl)-N-methylethanesulfonamide]",–
> 10000 nM,"CCCS(=O)(=O)N(C)c1cccc(C2Oc3cccc(OC)c3-c3ccc(NS(C)(=O)=O)cc32)c1 (stereo not drawn) [Example 132, N-(3-{1-methoxy-8-[(methylsulfonyl)amino]-6H-benzo[c]chromen-6-yl}phenyl)-N-methyl-1-propanesulfonamide]",–
> 10000 nM,"COc1cccc2c1-c1ccc(NS(C)(=O)=O)cc1C(c1cccc(-c3ccc(N(C)C)cc3)c1)O2 (stereo not drawn) [Example 133, N-{6-[4′-(dimethylamino)[1,1′-biphenyl]-3-yl]-1-methoxy-6H-benzo[c]chromen-8-yl}methanesulfonamide]",–
> 10000 nM,"CS(=O)(=O)Nc1ccc2c(c1)C(c1cccc(CCCCc3ccccc3)c1)Oc1cccc(OC(F)F)c1-2 (stereo not drawn) [Example 136, N-{1-(difluoromethoxy)-6-[3-(4-phenylbutyl)phenyl]-6H-benzo[c]chromen-8-yl}methanesulfonamide]",–
> 10000 nM,"CS(=O)(=O)Nc1ccc2c(c1)C(c1cccc(CCCCCCC#N)c1)Oc1cccc(OC(F)F)c1-2 (stereo not drawn) [Example 137, N-[6-[3-(6-cyanohexyl)phenyl]-1-(difluoromethoxy)-6H-benzo[c]chromen-8-yl]methanesulfonamide]",–
220 nM,"CS(=O)(=O)Nc1ccc2c(c1)C(c1cccc(-c3ccc(Cl)cc3)c1)Oc1cccc(OC(F)F)c1-2 (stereo not drawn) [Example 143, N-[6-(4′-chloro[1,1′-biphenyl]-3-yl)-1-(difluoromethoxy)-6H-benzo[c]chromen-8-yl]methanesulfonamide]",–
140 nM,"CS(=O)(=O)Nc1ccc2c(c1)C(c1cccc(-c3ccc(F)cc3)c1)Oc1cccc(OC(F)F)c1-2 (stereo not drawn) [Example 144, N-[1-(difluoromethoxy)-6-(4′-fluoro[1,1′-biphenyl]-3-yl)-6H-benzo[c]chromen-8-yl]methanesulfonamide]",–
390 nM,"COc1ccc(-c2cccc(C3Oc4cccc(OC(F)F)c4-c4ccc(NS(C)(=O)=O)cc43)c2)cc1 (stereo not drawn) [Example 145, N-[1-(difluoromethoxy)-6-(4′-methoxy[1,1′-biphenyl]-3-yl)-6H-benzo[c]chromen-8-yl]methanesulfonamide]",–
260 nM,"CS(=O)(=O)Nc1ccc2c(c1)C(c1cccc(-c3ccccc3Cl)c1)Oc1cccc(OC(F)F)c1-2 (stereo not drawn) [Example 146, N-[6-(2′-chloro[1,1′-biphenyl]-3-yl)-1-(difluoromethoxy)-6H-benzo[c]chromen-8-yl]methanesulfonamide]",–
530 nM,"Cc1ccc(-c2cccc(C3Oc4cccc(OC(F)F)c4-c4ccc(NS(C)(=O)=O)cc43)c2)cc1 (stereo not drawn) [Example 147, N-[1-(difluoromethoxy)-6-(4′-methyl[1,1′-biphenyl]-3-yl)-6H-benzo[c]chromen-8-yl]methanesulfonamide]",–
≥ 10000 nM,"COc1cccc2c1-c1ccc(NS(C)(=O)=O)cc1C(c1cccc(N(C)S(=O)(=O)c3ccc(Br)cc3)c1)O2 (stereo not drawn) [Example 152, 4-bromo-N-(3-{1-methoxy-8-[(methylsulfonyl)amino]-6H-benzo[c]chromen-6-yl}phenyl)-N-methylbenzenesulfonamide]",–
680 nM,"COc1ccc(Br)c2c1-c1ccc(NS(C)(=O)=O)cc1C(c1ccccc1)O2 (stereo not drawn) [Example 154, N-(4-bromo-1-methoxy-6-phenyl-6H-benzo[c]chromen-8-yl)methanesulfonamide]",–
6900 nM,"(1-ethoxy-6-phenyl-6H-dibenzo(b,d)pyran-8-yl)methanesulfonamide [Example 44]",–

# From US6593480B2 (Abbott Laboratories, priority 1999, dated 2003)
